Measurements from ChEMBL document CHEMBL1201862, “PubChem BioAssay data set” (2004).
Active and inactive are the calls of the source.

Key:
[1] = loss of viability in HepG2 cells – cell-based, CellTiter-Glo, cherry-picked, cytotoxicity control for Shn3 inhibitor project, dose response (AID 624134); type: functional
[2] = HEK-293T viability loss, compound-treated – cell-based, uHTS hits, cytotoxicity control for B/T-cell NF-kB inhibitor project, dose response (AID 489019); type: functional;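 note: IC50 reflects cytotoxicity as loss of cell viability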
[3] = reduction of Shn3 3'UTR-driven luciferase in osteoblasts – cell-based, Clone20 osteoblasts, firefly luciferase, cherry-picked, dose response (AID 624132); type: functional;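 note: firefly luciferase luminescence from reporter carrying the Shn3 3'UTR in osteoblasts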
Jurkat = experiment: blockers of NF-kB activation in T cells – Jurkat, luciferase reporter, luminescence, B- and T-cell, dose response (AID 489004); type: functional, cell-based; settings: Homo sapiens;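 note: NF-kB luciferase reporter Jurkat cells stimulated with PMA plus ionomycin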
[4] = target: Photoreceptor-specific nuclear receptor (Homo sapiens, UniProt Q9Y5X4); type: functional, cell-based;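 note: CHO-S cells with Gal4-NCOR and VP16-NR2E3 two-hybrid luciferase reporter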
Photoreceptor-specific nuclear receptor, sequence (Q9Y5X4 whole entry, the tested form may be a part): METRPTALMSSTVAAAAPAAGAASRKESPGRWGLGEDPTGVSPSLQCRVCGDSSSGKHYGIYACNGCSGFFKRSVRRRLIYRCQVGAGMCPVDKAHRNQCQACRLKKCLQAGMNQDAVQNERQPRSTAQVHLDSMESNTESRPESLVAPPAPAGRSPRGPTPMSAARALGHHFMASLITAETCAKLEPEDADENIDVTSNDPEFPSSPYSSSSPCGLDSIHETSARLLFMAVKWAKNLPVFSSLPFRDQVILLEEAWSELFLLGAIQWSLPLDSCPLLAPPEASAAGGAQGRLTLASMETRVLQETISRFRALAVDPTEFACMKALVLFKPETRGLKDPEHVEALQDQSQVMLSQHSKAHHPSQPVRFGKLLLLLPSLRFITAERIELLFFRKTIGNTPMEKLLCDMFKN

[5] = non-specific 3'UTR reporter inhibition in Clone20-Shn3RL – cell-based, Renilla luciferase, cherry-picked, counter-screen for Shn3 inhibitor project, dose response (AID 624133); type: functional
Vero = experiment: Vero E6 cell cytotoxicity, dose response, cytotoxicity control (AID 540298); type: functional; settings: Chlorocebus sabaeus
MDCK [6] = experiment: antiviral activity against H1N1 influenza, dose response, cell-based, strain KY136 (AID 540257); type: functional; settings: Canis lupus familiaris
MDCK [7] = experiment: antiviral activity against H1N1 influenza, dose response, cell-based, strain KY180 (AID 540254); type: functional; settings: Canis lupus familiaris
MDCK [8] = experiment: MDCK cell cytotoxicity, dose response, cytotoxicity control (AID 540296); type: functional; settings: Canis lupus familiaris
[9] = viability of HCT116 lacking mutant beta-catenin – cell-based, human colon tumor, dose response (AID 1045); type: functional;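 note: HCT116 colon tumor cells with beta catenin knocked out; cells exposed to compound for 60 hours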
[10] = PAX8-dependent cell viability loss – plate reader, dry powder, dose response (AID 743049); type: functional, cell-based
[11] = OV-90 cell viability loss – plate reader, dry powder, SA8, PAX8 inhibitor project, dose response (AID 743149); type: functional, cell-based
[12] = IGROV1 cell killing – plate reader, dry powder samples, PAX8 inhibitor project, dose response (AID 743043); type: functional, cell-based; settings: IGROV-1
[13] = target: T1, Microphthalmia-associated transcription factor (Homo sapiens, UniProt O75030); experiment: reducers of TRPM1 reporter luminescence, concentration series – cell-based, SK-MEL-5, cherry-picked, set 3, MITF inhibitor project, dose response (AID 493073); type: functional;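 note: SK-MEL-5 melanoma cells with luciferase driven by the MITF target TRPM1 promoter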
T1 sequence (O75030 whole entry): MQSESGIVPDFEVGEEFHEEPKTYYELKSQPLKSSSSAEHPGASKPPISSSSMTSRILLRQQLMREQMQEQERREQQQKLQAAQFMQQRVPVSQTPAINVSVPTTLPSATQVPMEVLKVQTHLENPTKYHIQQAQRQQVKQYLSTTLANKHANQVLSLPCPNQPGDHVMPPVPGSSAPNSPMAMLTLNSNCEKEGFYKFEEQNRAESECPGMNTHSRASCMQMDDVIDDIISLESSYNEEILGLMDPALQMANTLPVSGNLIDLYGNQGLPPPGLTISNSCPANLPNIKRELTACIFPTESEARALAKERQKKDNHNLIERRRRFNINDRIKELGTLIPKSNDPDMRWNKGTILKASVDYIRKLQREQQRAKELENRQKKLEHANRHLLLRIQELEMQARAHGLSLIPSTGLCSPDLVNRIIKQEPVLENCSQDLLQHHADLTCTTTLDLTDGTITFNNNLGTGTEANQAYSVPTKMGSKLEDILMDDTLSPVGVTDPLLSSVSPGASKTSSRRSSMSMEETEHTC

[14] = COV362 cell viability loss – plate reader, dry powder, SA12, cytotoxicity control for PAX8 inhibitor project, dose response (AID 743144); type: functional, cell-based
[15] = inhibitors acting on PAX2 in cells – cell-based, plate reader, dry powder samples, selectivity assay for PAX8 inhibitor project, dose response (AID 743048); type: functional;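 note: HEK293 cells carrying a WT1 promoter luciferase reporter driven by expressed Pax2; potency is for inhibition of Pax2 driven reporter signal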
Paired box protein Pax-8 = Paired box protein Pax-8 (Homo sapiens, UniProt Q06710); experiment: PAX8 transcriptional activity inhibition in RMG-I – RMG-I cells, luciferase, cherry-pick, dose response (AID 687027); type: functional, cell-based;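 note: luciferase reporter driven by Pax8 target thyroperoxidase promoter measured by SteadyGlo luminescence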
Paired box protein Pax-8, sequence (Q06710 whole entry): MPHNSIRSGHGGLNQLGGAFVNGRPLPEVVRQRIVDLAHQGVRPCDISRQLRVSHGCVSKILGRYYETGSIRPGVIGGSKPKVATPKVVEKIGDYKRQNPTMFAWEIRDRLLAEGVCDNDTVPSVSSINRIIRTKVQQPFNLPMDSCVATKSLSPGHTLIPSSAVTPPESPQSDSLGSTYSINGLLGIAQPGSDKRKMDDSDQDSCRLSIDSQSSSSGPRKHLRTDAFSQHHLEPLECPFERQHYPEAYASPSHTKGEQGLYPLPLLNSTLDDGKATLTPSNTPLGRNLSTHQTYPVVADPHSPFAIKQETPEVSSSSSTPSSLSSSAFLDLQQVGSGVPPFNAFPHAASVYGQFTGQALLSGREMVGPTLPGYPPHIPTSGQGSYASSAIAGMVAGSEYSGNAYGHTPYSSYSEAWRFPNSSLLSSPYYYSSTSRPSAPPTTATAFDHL

A-375 = experiment: proliferation inhibition in MITF-low A375 cells – cell-based, cherry-pick samples, set 2, counter-screen for MITF modulator project, dose response (AID 540335); type: functional; settings: Homo sapiens
[16] = viability of PTEN-deleted HCT116 cells – cell-based, HCT116 PTEN knockout, dose response (AID 1047); type: functional;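 note: HCT116 colon tumor cells with PTEN knocked out; cells exposed to compound for 60 hours before readout; potency for loss of cell viability measured by luminescence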
[17] = OVCAR-3 cell viability loss – plate reader, dry powder samples, PAX8 inhibitor project, dose response (AID 743044); type: functional, cell-based
[18] = A2780 cell killing – plate reader, dry powder samples, cytotoxicity control, dose response (AID 743046); type: functional, cell-based
[19] = toxicity toward immortalized ovarian surface epithelium – cell-based, plate reader, dry powder samples, cytotoxicity control for PAX8 inhibitor project, dose response (AID 743045); type: functional
[20] = OVCAR4 cell viability loss – plate reader, dry powder, SA11, cytotoxicity control for PAX8 inhibitor project, dose response (AID 743150); type: functional, cell-based; settings: OVCAR-4
[21] = PAX5 cellular inhibition readout – cell-based, plate reader, dry powder samples, selectivity assay for PAX8 inhibitor project, dose response (AID 743047); type: functional;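 note: HEK293 cells carrying a Pax5 driven CD19 promoter luciferase reporter; potency of inhibitors that lower reporter luminescence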
[22] = COV434 cell viability loss – plate reader, dry powder, SA7, cytotoxicity control for PAX8 inhibitor project, dose response (AID 743145); type: functional, cell-based
cells = type: functional
[23] = target: Serine/threonine-protein phosphatase (Candida dubliniensis (strain CD36 / CBS 7987 / NCPF 3949 / NRRLY-17841) (Yeast), UniProt B9W6M3); experiment: blockers of CaCl2-induced CDRE-lacZ signaling – S. cerevisiae, luminescence, secondary, dose response (AID 2388); type: functional, cell-based;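 note: yeast reporter cells carrying a calcineurin-responsive lacZ construct stimulated with calcium chloride; luminescent beta-galactosidase reporter signal in whole cells rather than isolated phosphatase activity; potency for inhibition where a drop in reporter signal means calcineurin blockade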
Serine/threonine-protein phosphatase, sequence (B9W6M3 whole entry): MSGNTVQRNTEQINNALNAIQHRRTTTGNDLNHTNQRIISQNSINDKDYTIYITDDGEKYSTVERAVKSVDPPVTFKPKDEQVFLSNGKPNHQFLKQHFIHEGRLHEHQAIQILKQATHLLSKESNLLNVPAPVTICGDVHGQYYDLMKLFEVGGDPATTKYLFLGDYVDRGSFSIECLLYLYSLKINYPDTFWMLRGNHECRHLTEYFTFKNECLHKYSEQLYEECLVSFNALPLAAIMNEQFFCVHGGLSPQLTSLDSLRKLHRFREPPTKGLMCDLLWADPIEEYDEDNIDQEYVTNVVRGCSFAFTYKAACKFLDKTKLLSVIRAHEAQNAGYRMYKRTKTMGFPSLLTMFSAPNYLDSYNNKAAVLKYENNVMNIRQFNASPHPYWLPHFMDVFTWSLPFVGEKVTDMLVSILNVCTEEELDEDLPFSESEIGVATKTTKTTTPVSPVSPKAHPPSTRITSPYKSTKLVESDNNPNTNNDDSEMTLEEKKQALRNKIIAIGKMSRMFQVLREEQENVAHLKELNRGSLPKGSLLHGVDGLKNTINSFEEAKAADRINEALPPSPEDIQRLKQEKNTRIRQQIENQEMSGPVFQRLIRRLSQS

[24] = fluconazole-exposed Candida albicans growth modulators – fluorescence, retest, confirmation (AID 2467); type: functional, cell-based
[25] = target: ATP-dependent molecular chaperone HSP82 (Candida albicans (strain WO-1) (Yeast), UniProt C4YTQ8); experiment: steroid-induced GRE reporter decrease in yeast – S. cerevisiae, luminescence, Hsp90 inhibitor project, dose response (AID 2400); type: functional, cell-based;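 note: beta-galactosidase luminescence from glucocorticoid response element reporter as proxy for Hsp90 function; inhibitor potency where signal loss means Hsp90 inhibition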
ATP-dependent molecular chaperone HSP82, sequence (C4YTQ8 whole entry): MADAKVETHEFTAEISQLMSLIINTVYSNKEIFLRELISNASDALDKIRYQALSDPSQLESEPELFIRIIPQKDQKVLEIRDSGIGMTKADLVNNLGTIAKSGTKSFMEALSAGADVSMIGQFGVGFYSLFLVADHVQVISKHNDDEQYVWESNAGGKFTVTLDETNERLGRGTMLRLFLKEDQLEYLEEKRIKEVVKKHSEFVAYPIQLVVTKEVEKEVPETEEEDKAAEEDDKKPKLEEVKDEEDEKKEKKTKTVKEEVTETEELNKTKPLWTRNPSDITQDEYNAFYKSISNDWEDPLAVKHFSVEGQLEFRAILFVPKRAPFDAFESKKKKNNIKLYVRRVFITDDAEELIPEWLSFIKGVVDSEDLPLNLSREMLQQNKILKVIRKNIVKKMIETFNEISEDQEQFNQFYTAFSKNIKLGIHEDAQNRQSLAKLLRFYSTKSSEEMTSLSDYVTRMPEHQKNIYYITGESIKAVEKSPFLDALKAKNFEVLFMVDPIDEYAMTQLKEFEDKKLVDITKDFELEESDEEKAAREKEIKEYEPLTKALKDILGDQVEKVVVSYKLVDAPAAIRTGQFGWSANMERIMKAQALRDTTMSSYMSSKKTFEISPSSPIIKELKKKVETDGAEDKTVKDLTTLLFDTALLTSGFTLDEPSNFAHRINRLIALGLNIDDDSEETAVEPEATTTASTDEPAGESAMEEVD

[26] = THP-1 cell cytotoxicity, dose response, cytotoxicity control for non-replicating M. tuberculosis project (AID 489025); type: functional
[27] = Vero E6 cell cytotoxicity, dose response, cytotoxicity control for non-replicating M. tuberculosis project, secondary assay (AID 492998); type: functional, VeroE6; settings: Vero C1008
[28] = NIH-3T3 fibroblast cytotoxicity, dose response, cytotoxicity control, cell-based, fluorescence, Alamar Blue, secondary assay (AID 2327); type: functional;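 note: NIH-3T3 mouse fibroblasts cultured with fluconazole at 8 µg/mL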
[29] = HepG2 cell cytotoxicity, dose response, cytotoxicity control for non-replicating M. tuberculosis project (AID 489018); type: functional; settings: Mycobacterium tuberculosis
[30] = suppression of NO production in INS-1E cells – cell-based, Griess absorbance, dry powder, set 3, dose response (AID 488870); type: functional; settings: Rattus norvegicus
INS1 [31] = experiment: beta-cell survival under cytokine stress – INS-1E, ATP luminescence, dry powder, dose response (AID 488844); type: functional, cell-based; settings: Rattus norvegicus
INS1 [32] = experiment: INS-1E mitochondrial potential loss inhibitors – cell-based, JC-1 fluorescence, dry powder, set 2, dose response (AID 488867); type: functional; settings: Rattus norvegicus

With `Cc1cc2sc3ccc(C#CC4(O)CCCCC4)cc3c(=O)c2cc1C` the AC50 [1] was 42 µM (active), the IC50 [2] was > 80 µM (inactive) and the AC50 [3] was < 0.26 µM (active). For the same molecule, the IC50 (Jurkat) was < 0.16 µM (active), the IC50 [4] was 0.0182 µM (active) and the AC50 [5] was 25 µM (active).

In the case of `Cc1nnc(NC(=O)CSc2nccn2-c2cccc(C)c2C)s1`, the CC50 (Vero) was > 40 µM (active), the IC50 (MDCK [6]) was 5.1 µM (active) and the IC50 (MDCK [7]) was 10.4 µM (active). The CC50 (MDCK [8]) was > 40 µM (active).

In the case of `COc1ccc(Br)cc1/C=C/C(=O)c1ccc(NC(C)=O)cc1`, the EC50 [9] was 1.04 µM (active), the AC50 [10] was 11.7 µM (active) and the AC50 [11] was 17.9 µM (active). The AC50 [12] was 15 µM (active), the AC50 [13] was 4.64 µM (active) and the AC50 [14] was 8.41 µM (active). For the same molecule, the AC50 [15] was 7.73 µM (active), the AC50 (Paired box protein Pax-8) was 3.8 µM (active) and the AC50 (A-375) was 33.2 µM (active). For the same molecule, the EC50 [16] was 1.12 µM (active), the AC50 [17] was 8.78 µM (active) and the AC50 [18] was 17.6 µM (active). The AC50 [19] was 9.22 µM (active), the AC50 [20] was 13.7 µM (active) and the AC50 [21] was 7.08 µM (active). For the same molecule, the AC50 [22] was 13.6 µM (active).

In the case of `Cc1ccc(C)c(-c2nnc(NC(=O)c3ccco3)o2)c1`, the IC50 (cells) was 2.58 µM (active), the EC50 [23] was > 180 µM (inactive) and the EC50 [24] was 0.695 µM (active). The EC50 [25] was > 160 µM (inactive), the CC50 [26] was > 40 µM (active) and the CC50 [27] was 15.8 µM (active). The EC50 [28] was > 160 µM (inactive) and the CC50 [29] was > 20 µM (active).

With `Cc1ccc(S(=O)(=O)N(C)C[C@@H]2Oc3c(NC(=O)Nc4ccc(F)cc4)cccc3C(=O)N([C@H](C)CO)C[C@H]2C)cc1` the AC50 [30] was 63.4 µM (active), the AC50 (INS1 [31]) was 73.9 µM (active) and the AC50 (INS1 [32]) was 106 µM (active).
